{"source": "paper PMC6364417", "about": "“Kinase inhibitor library screening identifies synergistic drug combinations effective in sensitive and resistant melanoma cells” (Journal of Experimental & Clinical Cancer Research : CR, 2019)", "assay_in_all_cases": "Kinase inhibitor library screening, PrestoBlue cell viability, 1 or 10 μM, 72 h", "key": {"[1]": {"test_system": "A375-GP cells (Dabrafenib-resistant)", "conditions": "A375 GP, 72 h"}, "[2]": {"test_system": "IGR37-GP cells (Dabrafenib-resistant)", "conditions": "IGR37 GP, 72 h"}, "[3]": {"test_system": "IGR37-XP cells (Vemurafenib-resistant)", "conditions": "IGR37 XP, 72 h"}, "A375 cells (parental)": {"test_system": "A375 cells (parental)", "conditions": "A375 Parental, 72 h; for cell viability, A375 Parental, 1μΜ / cell viability, A375 Parental, 10μΜ: in %"}, "501Mel cells (parental)": {"test_system": "501Mel cells (parental)", "conditions": "501Mel Parental, 72 h", "in_short": "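Two concentrations of every kinase inhibitor were tested on each melanoma line and its resistant counterparts, and cell survival was quantified by PrestoBlue against untreated wells.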"}, "[4]": {"test_system": "501Mel-GP cells (Dabrafenib-resistant)", "conditions": "501Mel GP, 72 h"}, "[5]": {"test_system": "A375-XP cells (Vemurafenib-resistant)", "conditions": "A375 XP, 72 h; for cell viability, A375 XP, 1μΜ / cell viability, A375 XP, 10μΜ: in %"}, "[6]": {"test_system": "501Mel-XP cells (Vemurafenib-resistant)", "conditions": "501Mel XP, 72 h"}, "IGR37 cells (parental)": {"test_system": "IGR37 cells (parental)", "conditions": "IGR37 Parental, 72 h"}}}
{"smiles": "Nc1ccc(-c2ccc3ncc4ccc(=O)n(-c5cccc(C(F)(F)F)c5)c4c3c2)cn1", "note": "[Torin 2]", "values": [{"measurement": "Cell viability in kinase inhibitor library screening, A375 GP, 1μΜ", "setting": "[1]; 1μΜ", "value": 7.9}, {"measurement": "Cell viability in kinase inhibitor library screening, A375 GP, 10μΜ", "setting": "[1]; 10μΜ", "value": 4.0}, {"measurement": "Cell viability in kinase inhibitor library screening, IGR37 GP, 10μΜ", "setting": "[2]; 10μΜ", "value": 2.7, "unit": "%"}, {"measurement": "Cell viability in kinase inhibitor library screening, IGR37 GP, 1μΜ", "setting": "[2]; 1μΜ, in %", "value": 20.7}, {"measurement": "Cell viability in kinase inhibitor library screening, IGR37 XP, 10μΜ", "setting": "[3]; 10μΜ", "value": 1.3, "unit": "%"}, {"measurement": "Cell viability in kinase inhibitor library screening, IGR37 XP, 1μΜ", "setting": "[3]; 1μΜ, in %", "value": 14.1}, {"measurement": "Cell viability in kinase inhibitor library screening, A375 Parental, 10μΜ", "setting": "A375 cells (parental); 10μΜ", "value": 3.6}, {"measurement": "Cell viability in kinase inhibitor library screening, A375 Parental, 1μΜ", "setting": "A375 cells (parental); 1μΜ", "value": 10.7}, {"measurement": "Cell viability in kinase inhibitor library screening, 501Mel Parental, 1μΜ", "setting": "501Mel cells (parental); 1μΜ, in %", "value": 5.6}, {"measurement": "Cell viability in kinase inhibitor library screening, 501Mel Parental, 10μΜ", "setting": "501Mel cells (parental); 10μΜ, in %", "value": 0.8}, {"measurement": "Cell viability in kinase inhibitor library screening, 501Mel GP, 1μΜ", "setting": "[4]; 1μΜ, in %", "value": 10.9}, {"measurement": "Cell viability in kinase inhibitor library screening, 501Mel GP, 10μΜ", "setting": "[4]; 10μΜ, in %", "value": 0.7}, {"measurement": "Cell viability in kinase inhibitor library screening, A375 XP, 1μΜ", "setting": "[5]; 1μΜ", "value": 12.1}, {"measurement": "Cell viability in kinase inhibitor library screening, A375 XP, 10μΜ", "setting": "[5]; 10μΜ", "value": 2.9}, {"measurement": "Cell viability in kinase inhibitor library screening, 501Mel XP, 1μΜ", "setting": "[6]; 1μΜ, in %", "value": 3.5}, {"measurement": "Cell viability in kinase inhibitor library screening, 501Mel XP, 10μΜ", "setting": "[6]; 10μΜ, in %", "value": 0.164}, {"measurement": "Cell viability in kinase inhibitor library screening, IGR37 Parental, 1μΜ", "setting": "IGR37 cells (parental); 1μΜ, in %", "value": 13.2}, {"measurement": "Cell viability in kinase inhibitor library screening, IGR37 Parental, 10μΜ", "setting": "IGR37 cells (parental); 10μΜ, in %", "value": 0.851}]}
{"smiles": "CC(C)(C)c1cc(/C=C(\\C#N)C(N)=S)cc(C(C)(C)C)c1O", "note": "[Tyrphostin AG 879 (AG 879)]", "values": [{"measurement": "cell viability, A375 GP, 10μΜ", "setting": "[1]; 10μΜ, in %", "value": 19.7}, {"measurement": "cell viability, IGR37 GP, 10μΜ", "setting": "[2]; 10μΜ", "value": 60.1, "unit": "%"}, {"measurement": "cell viability, IGR37 XP, 10μΜ", "setting": "[3]; 10μΜ", "value": 21.5, "unit": "%"}, {"measurement": "cell viability, IGR37 XP, 1μΜ", "setting": "[3]; 1μΜ, in %", "value": 90.9}, {"measurement": "cell viability, A375 Parental, 1μΜ", "setting": "A375 cells (parental); 1μΜ", "value": 103.1}, {"measurement": "cell viability, A375 Parental, 10μΜ", "setting": "A375 cells (parental); 10μΜ", "value": 21.0}, {"measurement": "cell viability, 501Mel Parental, 1μΜ", "setting": "501Mel cells (parental); 1μΜ, in %", "value": 115.0}, {"measurement": "cell viability, 501Mel Parental, 10μΜ", "setting": "501Mel cells (parental); 10μΜ, in %", "value": 44.8}, {"measurement": "cell viability, 501Mel GP, 1μΜ", "setting": "[4]; 1μΜ, in %", "value": 110.4}, {"measurement": "cell viability, 501Mel GP, 10μΜ", "setting": "[4]; 10μΜ, in %", "value": 23.6}, {"measurement": "cell viability, A375 XP, 1μΜ", "setting": "[5]; 1μΜ", "value": 105.8}, {"measurement": "cell viability, A375 XP, 10μΜ", "setting": "[5]; 10μΜ", "value": 24.1}, {"measurement": "cell viability, 501Mel XP, 1μΜ", "setting": "[6]; 1μΜ, in %", "value": 98.6}, {"measurement": "cell viability, 501Mel XP, 10μΜ", "setting": "[6]; 10μΜ, in %", "value": 18.3}, {"measurement": "cell viability, IGR37 Parental, 10μΜ", "setting": "IGR37 cells (parental); 10μΜ, in %", "value": 83.4}]}
{"smiles": "CCO.N#CC(=C(/N)Sc1ccccc1N)/C(C#N)=C(\\N)Sc1ccccc1N", "note": "[U0126-EtOH]", "values": [{"measurement": "cell viability, A375 GP, 1μΜ", "setting": "[1]; 1μΜ, in %", "value": 93.9}, {"measurement": "cell viability, A375 GP, 10μΜ", "setting": "[1]; 10μΜ, in %", "value": 64.5}, {"measurement": "cell viability, IGR37 GP, 10μΜ", "setting": "[2]; 10μΜ", "value": 83.5, "unit": "%"}, {"measurement": "cell viability, IGR37 GP, 1μΜ", "setting": "[2]; 1μΜ, in %", "value": 93.8}, {"measurement": "cell viability, IGR37 XP, 10μΜ", "setting": "[3]; 10μΜ", "value": 45.1, "unit": "%"}, {"measurement": "cell viability, IGR37 XP, 1μΜ", "setting": "[3]; 1μΜ, in %", "value": 92.3}, {"measurement": "cell viability, A375 Parental, 1μΜ", "setting": "A375 cells (parental); 1μΜ", "value": 100.1}, {"measurement": "cell viability, A375 Parental, 10μΜ", "setting": "A375 cells (parental); 10μΜ", "value": 39.4}, {"measurement": "cell viability, 501Mel Parental, 1μΜ", "setting": "501Mel cells (parental); 1μΜ, in %", "value": 94.5}, {"measurement": "cell viability, 501Mel Parental, 10μΜ", "setting": "501Mel cells (parental); 10μΜ, in %", "value": 65.9}, {"measurement": "cell viability, 501Mel GP, 1μΜ", "setting": "[4]; 1μΜ, in %", "value": 105.2}, {"measurement": "cell viability, 501Mel GP, 10μΜ", "setting": "[4]; 10μΜ, in %", "value": 75.1}, {"measurement": "cell viability, A375 XP, 1μΜ", "setting": "[5]; 1μΜ", "value": 94.5}, {"measurement": "cell viability, A375 XP, 10μΜ", "setting": "[5]; 10μΜ", "value": 60.2}, {"measurement": "cell viability, 501Mel XP, 1μΜ", "setting": "[6]; 1μΜ, in %", "value": 86.9}, {"measurement": "cell viability, 501Mel XP, 10μΜ", "setting": "[6]; 10μΜ, in %", "value": 62.2}, {"measurement": "cell viability, IGR37 Parental, 10μΜ", "setting": "IGR37 cells (parental); 10μΜ, in %", "value": 35.1}]}
{"smiles": "Cc1cc(Nc2cc(N3CCN(C)CC3)nc(Sc3ccc(NC(=O)C4CC4)cc3)n2)n[nH]1", "note": "[VX-680 (MK-0457, Tozasertib)]", "values": [{"measurement": "cell viability (kinase inhibitor library screening)", "setting": "[1]; 1μΜ", "value": 45.1, "unit": "%"}, {"measurement": "cell viability (kinase inhibitor library screening)", "setting": "[1]; 10μΜ", "value": 30.5, "unit": "%"}, {"measurement": "cell viability (kinase inhibitor library screening)", "setting": "[2]; 1μΜ", "value": 94.7, "unit": "%"}, {"measurement": "cell viability (kinase inhibitor library screening)", "setting": "[2]; 10μΜ", "value": 11.6, "unit": "%"}, {"measurement": "cell viability (kinase inhibitor library screening)", "setting": "[3]; 10μΜ", "value": 3.9, "unit": "%"}, {"measurement": "cell viability (kinase inhibitor library screening)", "setting": "A375 cells (parental); 10μΜ", "value": 26.3, "unit": "%"}, {"measurement": "cell viability (kinase inhibitor library screening)", "setting": "A375 cells (parental); 1μΜ", "value": 47.5, "unit": "%"}, {"measurement": "cell viability (kinase inhibitor library screening)", "setting": "501Mel cells (parental); 1μΜ", "value": 85.5, "unit": "%"}, {"measurement": "cell viability (kinase inhibitor library screening)", "setting": "501Mel cells (parental); 10μΜ", "value": 48.7, "unit": "%"}, {"measurement": "cell viability (kinase inhibitor library screening)", "setting": "[4]; 1μΜ", "value": 85.8, "unit": "%"}, {"measurement": "cell viability (kinase inhibitor library screening)", "setting": "[4]; 10μΜ", "value": 48.3, "unit": "%"}, {"measurement": "cell viability (kinase inhibitor library screening)", "setting": "[5]; 1μΜ", "value": 56.4, "unit": "%"}, {"measurement": "cell viability (kinase inhibitor library screening)", "setting": "[5]; 10μΜ", "value": 35.5, "unit": "%"}, {"measurement": "cell viability (kinase inhibitor library screening)", "setting": "[6]; 1μΜ", "value": 74.1, "unit": "%"}, {"measurement": "cell viability (kinase inhibitor library screening)", "setting": "[6]; 10μΜ", "value": 26.8, "unit": "%"}, {"measurement": "cell viability (kinase inhibitor library screening)", "setting": "IGR37 cells (parental); 1μΜ", "value": 89.0, "unit": "%"}, {"measurement": "cell viability (kinase inhibitor library screening)", "setting": "IGR37 cells (parental); 10μΜ", "value": 63.5, "unit": "%"}]}
